The test addresses T1, full length G2019 human LRRK2 (Homo sapiens, UniProt Q5S007, R50H).
T1 construct: made in house; host or cells: HEK293 6E cells transduced with BacMam virus (virus generated in Sf9 cells)
Put plainly: Full length G2019 human LRRK2 inhibition mass spectrometry assay. The format is biochemical. The conditions noted are these: LRRKtide to phospho-LRRKtide conversion, RapidFire MS, 2 mM ATP. The method, then: a. Full Length G2019 Human LRRK2 Inhibition Mass Spectrometry Assay
This assay for Leucine Rich Repeat Kinase 2 (LRRK2) inhibition is based on the direct measurement of the peptide ‘LRRKtide’ (LRRKtide: RLGRDKYKT*LRQIRQ and “*” refers to the site of phosphorylation.) and phosphorylated ‘LRRKtide’ using a high throughput Rapid Fire mass spectrometry assay. Inhibitors are compounds that reduce the conversion of LRRKtide to phospho-LRRKtide.
• 1) Compounds were dissolved in 100% DMSO at a concentration of 10 mM, and 11-point dose response curves generated using a 1 in 4 serial dilution in DMSO. 100 nL of this dilution series was then added to a 384 well, v bottom polypropylene plate (Greiner 781280), excluding columns 6 and 18. 100 nL of DMSO were added to column 6 to serve as the high control, while column 18 served as the low control containing assay buffer in place of the LRRK2 protein. Assay dilution gave a top final assay concentration of test compound of […] • 2) 5 μL of ‘enzyme solution’ containing 2× final assay concentration of purified recombinant Full length Flag-LRRK2 in assay buffer (50 mM Hepes, pH 7.2, 10 mM MgCl2, 150 mM NaCl, 5% glycerol, 0.0025% Triton X-100 and 1 mM DTT) were added to all wells using a Multidrop Combi dispenser (ThermoFisher Scientifiec), giving a final assay concentration of 25 nM LRRK2 enzyme (final concentration may vary depending on specific activity of different enzyme batches). • 3) 5 μL of substrate solution containing 50 μM LRRKtide peptide substrate and […] was added to all wells of the plate using a Multidrop Combi dispenser giving a final assay concentration of 25 μM LRRKtide peptide and 2 mM ATP. Test plates were then incubated for 1 hour at room temperature. (Incubation may vary depending on rate and linearity of reaction with different enzyme batches). • 4) 50 μl of 1% formic acid in laboratory grade water was added to all wells to quench the reaction, and plates were heat-sealed prior to centrifugation at 1348×g for 10 minutes. Test plates were then analysed on an Agilent RapidFire High Throughput solid phase extraction system coupled to AB Sciex API 4000 triple quadropole mass spectrometer with the following setting:
• Sip Height=2 mm, Aspirate=500 ms, Load time=3000 ms, Elution time=3000 ms, Requilibration=500 ms. • Flow rates: pump 1=1.5 mL/min, pump 2 1.25 mL/min pump 3=0.8 mL/min
Mass Spectrometer Settings: • LRRKtide Detection settings: Q1 mass 644.8 Da, Q3 mass 638.8, declustering potential 76 volts, collision energy 37 volts, CXP 34 volts. • Phospho-LRRKtide Detection settings: Q1 mass 671.4 Da, Q3 mass 638.8, Declustering potential 76 volts, Collision energy 37 volts, CXP 34 volts. • A C4 cartridge was used and running buffers were: A (aqueous) 0.1% formic acid in water B (organic) 0.1% formic acid, 80% acetonitrile, 20% water. • Collision gas: 12, Curtain gas: 25, Ion Source gas (1): 60, Ion Source gas (2): 60, Ion Spray Voltage: 5500, Temperature: 600, Interface Heater: ON. • Resolution Q1: low, Resolution Q3: low. • 5) Data were analysed using ActivityBase software (IDBS). A percent conversion from LRRKtide to Phospho-LRRKtide was calculated using the following formula:
% conversion=(Phospho-LRRKtide product peak area/(Phospho-LRRKtide product peak area+LRRKtide substrate peak area))*100 • A logistic 4 parameter curve fit was applied, using the following formula,
[formula] • Where x is the concentration of test sample, y is inhibition (%), a is the minimum, b is the Hill slope, c is the IC50 and d is the maximum. From this, the pIC50 was derived (−log IC50).
T1 sequence (Q5S007 with tags, fused parts or gaps R50H): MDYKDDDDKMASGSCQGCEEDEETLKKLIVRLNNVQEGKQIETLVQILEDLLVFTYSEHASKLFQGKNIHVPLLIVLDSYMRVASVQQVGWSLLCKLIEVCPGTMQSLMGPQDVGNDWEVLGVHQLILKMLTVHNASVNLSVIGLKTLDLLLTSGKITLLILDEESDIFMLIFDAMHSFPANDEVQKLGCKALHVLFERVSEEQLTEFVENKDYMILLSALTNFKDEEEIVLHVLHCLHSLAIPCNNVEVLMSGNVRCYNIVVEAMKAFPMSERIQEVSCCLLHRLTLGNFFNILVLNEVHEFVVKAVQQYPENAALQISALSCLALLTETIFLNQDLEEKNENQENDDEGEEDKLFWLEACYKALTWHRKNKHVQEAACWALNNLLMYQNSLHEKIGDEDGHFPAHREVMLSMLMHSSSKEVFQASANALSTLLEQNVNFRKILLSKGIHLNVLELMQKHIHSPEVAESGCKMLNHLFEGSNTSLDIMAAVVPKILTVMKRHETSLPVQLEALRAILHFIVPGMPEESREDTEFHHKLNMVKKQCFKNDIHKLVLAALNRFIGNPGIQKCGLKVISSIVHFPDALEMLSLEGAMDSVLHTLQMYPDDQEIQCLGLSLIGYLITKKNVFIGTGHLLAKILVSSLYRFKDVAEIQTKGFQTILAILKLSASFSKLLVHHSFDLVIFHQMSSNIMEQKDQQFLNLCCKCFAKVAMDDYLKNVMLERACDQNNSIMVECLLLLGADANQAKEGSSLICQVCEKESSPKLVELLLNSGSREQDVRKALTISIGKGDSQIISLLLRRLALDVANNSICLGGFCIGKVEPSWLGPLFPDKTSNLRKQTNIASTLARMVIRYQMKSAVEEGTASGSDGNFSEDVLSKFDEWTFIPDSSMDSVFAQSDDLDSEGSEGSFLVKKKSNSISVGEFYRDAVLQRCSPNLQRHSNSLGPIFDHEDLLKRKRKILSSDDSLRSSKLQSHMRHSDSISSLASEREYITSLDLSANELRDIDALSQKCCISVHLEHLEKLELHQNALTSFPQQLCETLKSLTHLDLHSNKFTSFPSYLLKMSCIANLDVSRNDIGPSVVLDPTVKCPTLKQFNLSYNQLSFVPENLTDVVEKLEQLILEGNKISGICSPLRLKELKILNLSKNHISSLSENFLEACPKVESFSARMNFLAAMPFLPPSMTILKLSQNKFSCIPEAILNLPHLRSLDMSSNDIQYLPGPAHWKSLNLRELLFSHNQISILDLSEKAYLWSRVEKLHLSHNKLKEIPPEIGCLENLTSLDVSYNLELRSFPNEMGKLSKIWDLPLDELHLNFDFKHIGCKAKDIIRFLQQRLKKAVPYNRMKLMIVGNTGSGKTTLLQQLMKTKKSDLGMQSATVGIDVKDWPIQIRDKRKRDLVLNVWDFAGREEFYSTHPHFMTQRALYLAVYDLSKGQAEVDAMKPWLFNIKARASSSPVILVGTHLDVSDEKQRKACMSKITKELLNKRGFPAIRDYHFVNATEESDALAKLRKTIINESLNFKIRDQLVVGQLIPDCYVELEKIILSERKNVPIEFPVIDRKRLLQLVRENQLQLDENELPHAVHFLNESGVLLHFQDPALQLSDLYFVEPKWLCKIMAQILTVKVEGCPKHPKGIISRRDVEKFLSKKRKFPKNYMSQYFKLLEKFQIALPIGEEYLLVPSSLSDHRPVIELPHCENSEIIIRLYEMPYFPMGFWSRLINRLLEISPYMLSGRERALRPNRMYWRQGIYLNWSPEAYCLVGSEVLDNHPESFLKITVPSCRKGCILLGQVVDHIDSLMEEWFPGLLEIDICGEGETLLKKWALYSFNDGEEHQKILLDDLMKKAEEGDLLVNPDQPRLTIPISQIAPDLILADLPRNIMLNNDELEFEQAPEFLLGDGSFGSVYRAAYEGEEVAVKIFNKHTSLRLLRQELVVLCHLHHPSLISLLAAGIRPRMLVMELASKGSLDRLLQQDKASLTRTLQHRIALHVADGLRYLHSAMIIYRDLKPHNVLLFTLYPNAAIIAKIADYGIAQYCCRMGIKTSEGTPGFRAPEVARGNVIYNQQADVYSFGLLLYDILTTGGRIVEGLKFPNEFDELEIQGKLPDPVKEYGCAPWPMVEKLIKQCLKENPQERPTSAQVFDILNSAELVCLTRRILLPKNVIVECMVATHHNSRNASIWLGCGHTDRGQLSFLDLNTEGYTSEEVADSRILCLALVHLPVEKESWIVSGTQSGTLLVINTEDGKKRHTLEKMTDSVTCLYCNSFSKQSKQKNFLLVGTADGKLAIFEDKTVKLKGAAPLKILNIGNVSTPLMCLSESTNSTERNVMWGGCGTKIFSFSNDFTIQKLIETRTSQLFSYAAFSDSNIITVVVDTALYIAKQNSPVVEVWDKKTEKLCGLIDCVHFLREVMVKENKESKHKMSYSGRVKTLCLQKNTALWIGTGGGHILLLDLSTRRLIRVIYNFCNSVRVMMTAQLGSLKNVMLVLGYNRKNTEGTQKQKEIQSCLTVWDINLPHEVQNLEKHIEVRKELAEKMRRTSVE
Consider `Cc1c2c(nn1C1CCOCC1)OCC(C)CNc1nc(ncc1Cl)N2` (single isomer, unassigned) [E137, 14-chloro-4,10-dimethyl-5-(oxan-4-yl)-8-oxa-2,5,6,12,16,17-hexaazatricyclo[11.3.1.0^3,7]heptadeca-1(16),3,6,13(17),14-pentaene], for which the IC50 was not above 0.1 µM. With `Cc1c2c(nn1C(C)(C)C(N)=O)OCCCNc1nc(ncc1Cl)N2` [E190, 2-{14-Chloro-4-methyl-8-oxa-2,5,6,12,16,17-hexaazatricyclo [11.3.1.0^3,7]heptadeca-1(16),3,6,13(17),14-pentaen-5-yl}-2-methylpropanamide] the figure was not above 10 µM. As to `Cc1c2c(nn1C1CCOCC1)OCCC(C)Nc1nc(ncc1C(F)(F)F)N2` (single isomer, unassigned) [E290, 4,11-Dimethyl-5-(oxan-4-yl)-14-(trifluoromethyl) -8-oxa-2,5,6,12,16,17-hexaazatricyclo[11.3.1.0^3,7]heptadeca-1(16),3,6,13(17),14-pentaene], the half-inhibitory concentration (IC50) was not above 10 µM. In turn, `Cc1c2c(nn1C1CCN(C3COC3)CC1(F)F)OCCCNc1nc(ncc1Cl)N2` (single isomer, unassigned) [E405, 14-Chloro-5-[3,3-difluoro-1-(oxetan-3-yl)piperidin-4-yl]-4-methyl-8-oxa-2,5,6,12,16,17-hexaazatricyclo[11.3.1.0^3,7]heptadeca-1(16),3,6,13(17),14-pentaene] showed a 50% inhibitory concentration (IC50) not above 0.1 µM. For `Cc1c2c(nn1C1CCOCC1C)OCCCNc1nc(ncc1Cl)N2` (single isomer, unassigned) [E140, 14-chloro-4-methyl-5-(3-methyloxan-4-yl)-8-oxa-2,5,6,12,16,17-hexaazatricyclo[11.3.1.0^3,7]heptadeca-1(16),3,6,13(17),14-pentaene] the value was not above 0.1 µM; for `Cc1c2c(nn1C1CC3CCC(C1)O3)OCCCNc1nc(ncc1Cl)N2` (single isomer, unassigned) [E244, 14-Chloro-4-methyl-5-{8-oxabicyclo[3.2.1]octan-3-yl}-8-oxa-2,5,6,12,16,17-hexaazatricyclo[11.3.1.0^3,7] heptadeca-1(16),3,6,13(17),14-pentaene], not above 0.1 µM; for `COC1CNc2nc(ncc2Cl)Nc2c(nn(CC3(C)COC3)c2C)OC1` (single isomer, unassigned) [E272, 14-Chloro-10-methoxy-4-methyl-5-[(3-methyloxetan-3-yl)methyl]-8-oxa-2,5,6,12,16,17-hexaazatricyclo [11.3.1.0^3,7]heptadeca-1(16),3,6,13(17),14-pentaene], not above 0.1 µM. The molecule `Cc1c2c(nn1CCN1CCC(F)C1)OCCC(C)Nc1nc(ncc1Cl)N2` (single isomer, unassigned) [E216, 14-Chloro-5-[2-(3-fluoropyrrolidin-1-yl)ethyl]-4,11-dimethyl-8-oxa-2,5,6,12,16,17-hexaazatricyclo [11.3.1.0^3,7] heptadeca-1(16),3,6,13(17),14-pentaene] had an IC50 of 100 µM. Consider `Cc1c2c(nn1C(C)C1CCOCC1)OCCC(C)Nc1nc(ncc1Cl)N2` (single isomer, unassigned) [E182, 14-Chloro-4,11-dimethyl-5-[1-(oxan-4-yl)ethyl]-8-oxa-2,5,6,12,16,17-hexaazatricyclo[11.3.1.0^3,7]heptadeca-1(16),3,6,13(17),14-pentaene], for which the IC50 is not above 10 µM. With `Cc1c2c(nn1C1CCC(C)CC1)OCCC(C)Nc1nc(ncc1Cl)N2` (single isomer, unassigned) [E261, 14-Chloro-4,11-dimethyl-5-(4-methylcyclohexyl)-8-oxa-2,5,6,12,16,17-hexaazatricyclo[11.3.1.0^3,7] heptadeca-1(16),3,6,13(17),14-pentaene] the figure was not above 10 µM; with `Cc1c2c(nn1C1CCCOC1)OCC(C)CNc1nc(ncc1Cl)N2` (single isomer, unassigned) [E307, 14-Chloro-4,10-dimethyl-5-(oxan-3-yl)-8-oxa-2,5,6,12,16,17-hexaazatricyclo[11.3.1.0^3,7]heptadeca-1(16),3,6, 13(17),14-pentaene], not above 0.1 µM; with `Cc1c2c(nn1C1CCOCC1(C)C)OCC[C@@H](C)Nc1nc(ncc1Cl)N2` (single isomer, unassigned) [E423], not above 0.1 µM. For the molecule `CCOC1CNc2nc(ncc2Cl)Nc2c(nn(C3CCOCC3)c2C)OC1` (single isomer, unassigned) [E286, 14-Chloro-10-ethoxy-4-methyl-5-(oxan-4-yl)-8-oxa-2,5,6,12,16,17-hexaazatricyclo[11.3.1.0^3,7]heptadeca-1(16),3,6,13(17),14-pentaene], the concentration for half-maximal inhibition (IC50) is not above 10 µM. With `Cc1c2c(nn1C1CCOCC1(F)F)OCCCNc1nc(ncc1Cl)N2` (single isomer, unassigned) [E414] the figure was not above 0.1 µM; with `COCC1CCOc2nn(C3CCOCC3F)c(C)c2Nc2ncc(Cl)c(n2)N1` (single isomer, unassigned) [E356, 14-Chloro-5-(3-fluorooxan-4-yl)-11-(methoxymethyl)-4-methyl-8-oxa-2,5,6,12,16,17-hexaazatricyclo [11.3. 1.0^3,7]heptadeca-1(16),3,6,13(17),14-pentaene], not above 10 µM.

With `Cc1c2c(nn1C1CN(C3CCCOC3)C1)OC[C@@H](F)[C@@H](C)Nc1nc(ncc1Cl)N2` (stereo partly drawn) [E390, (10S, 11R)-14-Chloro-10-fluoro-4,11-dimethyl-5-[1-(oxan-3-yl)azetidin-3-yl]-8-oxa-2,5,6,12,16,17-hexaazatricyclo [11.3.1.0^3,7]heptadeca-1(16)53,6,13(17),14-pentaene], the IC50 was not above 0.1 µM. With `Cc1c2c(nn1C1CCC(N3CCOCC3)C1)OCCCNc1nc(ncc1Cl)N2` (single isomer, unassigned) [E370, 14-Chloro-4-methyl-5-[3-(morpholin-4-yl)cyclopentyl]-8-oxa-2,5,6,12,16,17-hexaazatricyclo[11.3.1.0^3,7] heptadeca-1(16),3,6,13(17),14-pentaene] the figure was not above 10 µM; with `Cc1c2c(nn1C1CC(C)OC(C)C1)OCCCNc1nc(ncc1Cl)N2` (single isomer, unassigned) [E201, 14-Chloro-5-(2,6-dimethyloxan-4-yl)-4-methyl-8-oxa-2,5,6,12,16,17-hexaazatricyclo[11.3.1.0^3,7]heptadeca-1(16),3,6,13(17),14-pentaene], not above 0.1 µM. With `Cc1cnc2nc1N[C@H](C)CCOc1nn(C3CCOCC3)c(C)c1N2` [E296, (11R)-14-Methyl-4,11-dimethyl-5-(oxan-4-yl)-8-oxa-2,5,6,12,16,17-hexaazatricyclo[11.3.1.0^3,7]heptadeca-1(16),3,6,13(17),14-pentaene] the figure was not above 10 µM; with `Cc1c2c(nn1C1CC(C)OC(C)C1)OCCC(C)Nc1nc(ncc1Cl)N2` (single isomer, unassigned) [E197, 14-Chloro-5-(2,6-dimethyloxan-4-yl)-4,11-dimethyl-8-oxa-2,5,6,12,16,17-hexaazatricyclo[11.3.1.0^3,7] heptadeca-1(16),3,6,13(17),14-pentaene], not above 10 µM; with `COC1CNc2nc(ncc2Cl)Nc2c(nn(C3CC4CCC(C3)O4)c2C)OC1` (single isomer, unassigned) [E246, 14-Chloro-10-methoxy-4-methyl-5-{8-oxabicyclo[3.2.1]octan-3-yl}-8-oxa-2,5,6,12,16,17-hexaazatricyclo [11.3.1.0^3,7]heptadeca-1(16),3,6,13(17),14-pentaene], not above 10 µM.

Broadly, the IC50 is the concentration at which inhibition is half-maximal. A high value points to a need for much substance.

The values are drawn from patent US20200392158A1, “INHIBITORS OF LEUCINE RICH REPEAT KINASE 2” (GLAXOSMITHKLINE INTELLECTUAL PROPERTY DEVELOPMENT LIMITED, priority 2017, published 2020).
